In article PMC8383264, “Structural Characterization of the Reaction and Substrate Specificity Mechanisms of Pathogenic Fungal Acetyl-CoA Synthetases” (ACS Chemical Biology, 2021):

Columns and labels:
CnAcs1 [1] = target: T1, CnAcs1 (Cryptococcus neoformans, UniProt J9VFT1); test: biochemical; type: binding; settings: read-out: thermal shift (ΔTm)
CnAcs1 [2] = target: T1, CnAcs1; test: Coupled continuous pyrophosphate detection assay (EnzChek) of ACS activity; settings: for utilization as substrate for CnAcs1: alternative acid substrates
A. fumigatus Acs1 = target: T2, A. fumigatus Acs1 (Aspergillus fumigatus, UniProt Q4WQ02); test: as above
T2 sequence (Q4WQ02 2-670): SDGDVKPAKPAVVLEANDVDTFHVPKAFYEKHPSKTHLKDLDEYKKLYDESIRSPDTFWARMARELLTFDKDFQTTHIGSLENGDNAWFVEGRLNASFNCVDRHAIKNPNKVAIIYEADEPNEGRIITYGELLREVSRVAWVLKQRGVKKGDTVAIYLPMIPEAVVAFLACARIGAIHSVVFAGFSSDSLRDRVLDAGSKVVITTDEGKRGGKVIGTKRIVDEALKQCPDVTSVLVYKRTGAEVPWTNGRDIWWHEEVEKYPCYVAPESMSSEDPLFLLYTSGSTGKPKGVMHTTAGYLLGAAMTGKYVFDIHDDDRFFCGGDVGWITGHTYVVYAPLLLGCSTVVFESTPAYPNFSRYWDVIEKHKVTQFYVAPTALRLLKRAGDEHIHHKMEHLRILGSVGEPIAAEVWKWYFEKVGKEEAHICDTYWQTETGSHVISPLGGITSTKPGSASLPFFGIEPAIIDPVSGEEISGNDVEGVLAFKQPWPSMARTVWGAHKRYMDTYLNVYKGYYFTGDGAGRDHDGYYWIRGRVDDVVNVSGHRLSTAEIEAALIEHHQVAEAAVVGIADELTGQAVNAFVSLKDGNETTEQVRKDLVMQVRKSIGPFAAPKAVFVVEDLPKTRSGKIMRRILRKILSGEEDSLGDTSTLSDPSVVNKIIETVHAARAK

C. albicans Acs1 = C. albicans Acs1 (Candida albicans, UniProt Q8NJN3); test: as above
C. immitis Acs1 = C. immitis Acs1 (Coccidioides immitis, UniProt J3KJC6); test: biochemical
C. posadasii Acs1 = C. posadasii Acs1 (Coccidioides posadasii, UniProt C5PGB4); test: biochemical
[3] = test system: CC(C)(COP(=O)(O)OP(=O)(O)OC[C@H]1O[C@@H](n2cnc3c(N)ncnc32)[C@H](O)[C@@H]1OP(=O)(O)O)[C@@H](O)C(=O)NCCC(=O)NCCS; test: purified protein, by the assay type
[4] = test system: Nc1ncnc2c1ncn2[C@@H]1O[C@H](COP(=O)(O)OP(=O)(O)OP(=O)(O)O)[C@@H](O)[C@H]1O; test: purified protein, by the assay type; settings: 37.0 °C
[5] = substrate: CC(C)(COP(=O)(O)OP(=O)(O)OC[C@H]1O[C@@H](n2cnc3c(N)ncnc32)[C@H](O)[C@@H]1OP(=O)(O)O)[C@@H](O)C(=O)NCCC(=O)NCCS; test: purified protein, by the assay type; settings: 37 °C, ±S.E.M.
[6] = substrate: Nc1ncnc2c1ncn2[C@@H]1O[C@H](COP(=O)(O)OP(=O)(O)OP(=O)(O)O)[C@@H](O)[C@H]1O; test: purified protein, by the assay type; settings: 37 °C, ±S.E.M.
[7] = other: substrate Km, other substrates in excess (ATP 2.5 mM, CoA 1 mM, sodium acetate 0.5 mM)
[8] = other: substrate Km, other substrates in excess
[9] = other: commercially available enzyme, control, other substrates in excess

Chain of C. albicans Acs1 (Q8NJN3 2-671 limits assumed): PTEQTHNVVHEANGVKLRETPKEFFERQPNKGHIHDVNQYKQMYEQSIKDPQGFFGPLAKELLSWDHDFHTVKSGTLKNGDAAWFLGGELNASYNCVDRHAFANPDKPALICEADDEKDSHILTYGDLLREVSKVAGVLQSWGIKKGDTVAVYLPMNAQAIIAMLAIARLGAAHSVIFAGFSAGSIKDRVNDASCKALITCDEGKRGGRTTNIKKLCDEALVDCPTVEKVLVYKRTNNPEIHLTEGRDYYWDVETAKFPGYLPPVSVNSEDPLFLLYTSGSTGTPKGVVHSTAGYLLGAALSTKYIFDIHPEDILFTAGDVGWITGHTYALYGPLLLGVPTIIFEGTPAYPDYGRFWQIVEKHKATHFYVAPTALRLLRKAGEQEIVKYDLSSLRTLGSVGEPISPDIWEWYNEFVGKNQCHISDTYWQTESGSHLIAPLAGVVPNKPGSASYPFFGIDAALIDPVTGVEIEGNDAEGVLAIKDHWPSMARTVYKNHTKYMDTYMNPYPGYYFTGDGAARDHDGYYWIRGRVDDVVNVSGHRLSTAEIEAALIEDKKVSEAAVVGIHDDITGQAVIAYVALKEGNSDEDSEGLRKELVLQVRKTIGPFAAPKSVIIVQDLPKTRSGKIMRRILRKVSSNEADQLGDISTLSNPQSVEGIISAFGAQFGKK
Chain of C. immitis Acs1 (J3KJC6 2-691 limits assumed): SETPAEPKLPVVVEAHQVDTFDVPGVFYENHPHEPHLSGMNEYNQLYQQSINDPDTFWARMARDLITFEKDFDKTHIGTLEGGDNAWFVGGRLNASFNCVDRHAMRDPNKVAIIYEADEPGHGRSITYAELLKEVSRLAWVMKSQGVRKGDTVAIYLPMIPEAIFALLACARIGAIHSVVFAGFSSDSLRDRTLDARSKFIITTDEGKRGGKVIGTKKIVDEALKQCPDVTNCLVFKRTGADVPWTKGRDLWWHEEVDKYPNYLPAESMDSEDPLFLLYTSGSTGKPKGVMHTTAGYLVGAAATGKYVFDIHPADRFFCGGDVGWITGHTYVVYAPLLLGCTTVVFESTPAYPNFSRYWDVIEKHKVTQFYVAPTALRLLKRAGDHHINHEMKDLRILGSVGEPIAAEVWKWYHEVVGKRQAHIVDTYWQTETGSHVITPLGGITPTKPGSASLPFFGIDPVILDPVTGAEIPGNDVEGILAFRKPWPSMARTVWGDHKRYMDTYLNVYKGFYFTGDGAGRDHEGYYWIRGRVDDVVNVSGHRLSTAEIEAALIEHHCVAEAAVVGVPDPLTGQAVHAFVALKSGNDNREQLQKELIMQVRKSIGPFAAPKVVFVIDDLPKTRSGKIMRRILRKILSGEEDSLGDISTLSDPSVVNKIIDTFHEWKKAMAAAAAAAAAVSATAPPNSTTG
Chain of C. posadasii Acs1 (C5PGB4 2-691 limits assumed): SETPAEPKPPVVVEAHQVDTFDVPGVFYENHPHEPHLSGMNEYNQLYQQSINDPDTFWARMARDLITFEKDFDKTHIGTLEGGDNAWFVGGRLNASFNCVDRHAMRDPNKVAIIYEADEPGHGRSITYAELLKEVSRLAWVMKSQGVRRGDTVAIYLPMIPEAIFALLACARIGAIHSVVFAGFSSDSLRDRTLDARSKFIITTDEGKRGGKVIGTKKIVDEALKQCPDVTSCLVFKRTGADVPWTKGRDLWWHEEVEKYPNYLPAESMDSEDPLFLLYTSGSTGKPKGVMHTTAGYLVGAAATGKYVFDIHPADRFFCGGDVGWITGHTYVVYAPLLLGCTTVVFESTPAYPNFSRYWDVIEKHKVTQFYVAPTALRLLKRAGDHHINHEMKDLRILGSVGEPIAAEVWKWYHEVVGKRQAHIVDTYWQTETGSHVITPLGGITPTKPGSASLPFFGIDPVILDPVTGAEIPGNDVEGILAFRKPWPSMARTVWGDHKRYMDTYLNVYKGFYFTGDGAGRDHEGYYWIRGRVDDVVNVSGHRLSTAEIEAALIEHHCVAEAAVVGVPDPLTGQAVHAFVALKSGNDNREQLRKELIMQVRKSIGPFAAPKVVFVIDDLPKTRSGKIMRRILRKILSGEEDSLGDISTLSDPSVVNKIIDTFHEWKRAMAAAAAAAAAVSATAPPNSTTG

Molecule: Nc1ncnc2c1ncn2[C@@H]1O[C@H](COS(N)(=O)=O)[C@@H](O)[C@H]1O [AMS, adenosine monosulfonamide]
- ΔTm at 1000 µM (CnAcs1 [1]): -0.2 °C
- Ki (CnAcs1 [2]): > 50000 nM

Molecule: Nc1ncnc2c1ncn2[C@@H]1O[C@H](COP(=O)(O)OP(=O)(O)OP(=O)(O)O)[C@@H](O)[C@H]1O [ATP, adenosine triphosphate, reference compound]
- calculated binding energy ΔG (CnAcs1 [2]): -6 kcal/mol

Molecule: CC(=O)NS(=O)(=O)OC[C@H]1O[C@@H](n2cnc3c(N)ncnc32)[C@H](O)[C@@H]1O [acyl-AMS, acetyl-adenosine monosulfonamide]
- Ki (CnAcs1 [2]): 590 nM

Molecule: CCCCOP(=O)(O)OC[C@H]1O[C@@H](n2cnc3c(N)ncnc32)[C@H](O)[C@@H]1O [butyl-AMP]
- ΔTm at 1000 µM (CnAcs1 [1]): 6.7 °C
- IC50 (CnAcs1 [2]): > 50000 nM
- Ki (CnAcs1 [2]): > 50000 nM
- inhibition of CnAcs1 (CnAcs1 [2]): no inhibition
- IC50 (A. fumigatus Acs1): > 50000 nM
- IC50 (C. albicans Acs1): > 50000 nM

Molecule: CCCC(=O)O [butyrate, reference compound]
- utilization as substrate for CnAcs1 (CnAcs1 [2]): neither valerate nor butyrate were CnAcs1 substrates
- inhibition of acetate utilization (CnAcs1 [2]; non-preferred acid substrate): does not inhibit

Molecule: CCOP(=O)(O)OC[C@H]1O[C@@H](n2cnc3c(N)ncnc32)[C@H](O)[C@@H]1O [ethyl-AMP]
- ΔTm at 1000 µM (CnAcs1 [1]): 14.2 °C
- IC50 (C. immitis Acs1): 60 nM
- IC50 (C. posadasii Acs1): 70 nM
- IC50 (CnAcs1 [2]): 2100 nM
- Ki (CnAcs1 [2]): 470 nM
- IC50 (A. fumigatus Acs1): 60 nM
- IC50 (C. albicans Acs1): 290 nM

Molecule: NCC(=O)NS(=O)(=O)OCC1OC(n2cnc3c(N)ncnc32)C(O)C1O (centres unmarked) [glycine derivative of AMS]
- inhibition of CnAcs1 (CnAcs1 [2]): no inhibition

Molecule: COP(=O)(O)OC[C@H]1O[C@@H](n2cnc3c(N)ncnc32)[C@H](O)[C@@H]1O [methyl-AMP]
- ΔTm at 1000 µM (CnAcs1 [1]): 8.3 °C
- Ki (CnAcs1 [2]): 39000 ± 11000 nM
- fold less active than ethyl AMP ester (CnAcs1 [2]): ~100 fold

Molecule: CCC(=O)O [propionate, reference compound]
- Km fold higher than acetate (CnAcs1 [2]; alternative acid substrate, relative to acetate): > 100 fold

Molecule: CCCOP(=O)(O)OC[C@H]1O[C@@H](n2cnc3c(N)ncnc32)[C@H](O)[C@@H]1O [propyl-AMP, propyl-adenosine monophosphate ester]
- ΔTm at 1000 µM (CnAcs1 [1]): 12.2 °C
- Ki (CnAcs1 [2]): 1240 ± 200 nM

Molecule: CCCCC(=O)O [valerate, reference compound]
- utilization as substrate for CnAcs1 (CnAcs1 [2]): neither valerate nor butyrate were CnAcs1 substrates

Molecule: C. albicans Acs1 (Candida albicans SC5314)
- Km ([3]; other: substrate Km, other substrates in excess, 37 °C, ±S.E.M.): 471 ± 45 µM

Molecule: C. immitis Acs1 (Coccidioides immitis RS)
- Km ([3]; 37.0 °C): 441 ± 45 µM
- Km [4]: 102 ± 8 µM

Molecule: C. posadasii Acs1 (Coccidioides posadasii C735 delta SOWgp)
- Km ([3]; 37.0 °C): 314 ± 32 µM
- Km [4]: 117 ± 15 µM

B1: CnAcs1 (Cryptococcus neoformans H99) (protein)
chain: GKTEVAPGVHHVHPLPDSVPESEDLFAPPPRMQGKEGRPKPHIGPNYESYVKEWAKTVGPNSDEWWAAKARETLDWYDDFKTVRAGGFEHGDVQWFPEGTLNAAYNCLDRHYYKNPKKTAIIYEADEPSESREVSYEELMQETCRVANVLKSYGVKKGDAVSIYLPMTWQAAAAFLACARIGAIHSAVFAGFSAESLRDRVNDCECKVLITTDEGRRGGKTIATKQIVDAALQQCPLVENVLVLRRTGNKVPMTEGRDKWWDEECAKMPAYCPCERMASEDPLFILYTSGSTGKPKGVVHSTAGYLLGTALTLKYVFDAHPDDRFACMADIGWITGHSYIIYGPLANGITTAVFESTPVYPTPSRYWDFVDKWKATQLYTAPTAIRLLRRMGEDHVKNHDLSSLRVLGSVGEPINPEAWHWYNDFAGKNQCAIVDTYWMTETGSISIAPLPGAISTKPGSATFPFFGMDVDIIDPQTGQVLEGNDVEGVLVARRPWPSIARTVYRDHKRYLETYMKPYPGYFFFGDGAARDYDGYMWIKGRVDDVINVSGHRLSTAEVESALILHKGVAETAVVGCADDLTGQAVYAFVTMKPEFDLKATKEADLSKELAIQVRKVIGPFAAPKKIYLVSDLPKTRSGKIMRRVLRKIVAGEGDQLGDLSSIADPQIVEEVKQKVTGSA
- Km [5, 7]: 880 ± 170 µM
- Km [6, 7]: 59 ± 10 µM

B2: A. fumigatus Acs1 (Aspergillus fumigatus Af293) (protein)
chain: SDGDVKPAKPAVVLEANDVDTFHVPKAFYEKHPSKTHLKDLDEYKKLYDESIRSPDTFWARMARELLTFDKDFQTTHIGSLENGDNAWFVEGRLNASFNCVDRHAIKNPNKVAIIYEADEPNEGRIITYGELLREVSRVAWVLKQRGVKKGDTVAIYLPMIPEAVVAFLACARIGAIHSVVFAGFSSDSLRDRVLDAGSKVVITTDEGKRGGKVIGTKRIVDEALKQCPDVTSVLVYKRTGAEVPWTNGRDIWWHEEVEKYPCYVAPESMSSEDPLFLLYTSGSTGKPKGVMHTTAGYLLGAAMTGKYVFDIHDDDRFFCGGDVGWITGHTYVVYAPLLLGCSTVVFESTPAYPNFSRYWDVIEKHKVTQFYVAPTALRLLKRAGDEHIHHKMEHLRILGSVGEPIAAEVWKWYFEKVGKEEAHICDTYWQTETGSHVISPLGGITSTKPGSASLPFFGIEPAIIDPVSGEEISGNDVEGVLAFKQPWPSMARTVWGAHKRYMDTYLNVYKGYYFTGDGAGRDHDGYYWIRGRVDDVVNVSGHRLSTAEIEAALIEHHQVAEAAVVGIADELTGQAVNAFVSLKDGNETTEQVRKDLVMQVRKSIGPFAAPKAVFVVEDLPKTRSGKIMRRILRKILSGEEDSLGDTSTLSDPSVVNKIIETVHAARAK
- Km [5, 8]: 340 ± 26 µM
- Km [6, 8]: 42 ± 11 µM

B3: S. cerevisiae Acs1 (Saccharomyces cerevisiae S288C) (protein)
chain: MSPSAVQSSKLEEQSSEIDKLKAKMSQSAATAQQKKEHEYEHLTSVKIVPQRPISDRLQPAIATHYSPHLDGLQDYQRLHKESIEDPAKFFGSKATQFLNWSKPFDKVFIPDPKTGRPSFQNNAWFLNGQLNACYNCVDRHALKTPNKKAIIFEGDEPGQGYSITYKELLEEVCQVAQVLTYSMGVRKGDTVAVYMPMVPEAIITLLAISRIGAIHSVVFAGFSSNSLRDRINDGDSKVVITTDESNRGGKVIETKRIVDDALRETPGVRHVLVYRKTNNPSVAFHAPRDLDWATEKKKYKTYYPCTPVDSEDPLFLLYTSGSTGAPKGVQHSTAGYLLGALLTMRYTFDTHQEDVFFTAGDIGWITGHTYVVYGPLLYGCATLVFEGTPAYPNYSRYWDIIDEHKVTQFYVAPTALRLLKRAGDSYIENHSLKSLRCLGSVGEPIAAEVWEWYSEKIGKNEIPIVDTYWQTESGSHLVTPLAGGVTPMKPGSASFPFFGIDAVVLDPNTGEELNTSHAEGVLAVKAAWPSFARTIWKNHDRYLDTYLNPYPGYYFTGDGAAKDKDGYIWILGRVDDVVNVSGHRLSTAEIEAAIIEDPIVAECAVVGFNDDLTGQAVAAFVVLKNKSSWSTATDDELQDIKKHLVFTVRKDIGPFAAPKLIILVDDLPKTRSGKIMRRILRKILAGESDQLGDVSTLSNPGIVRHLIDSVKL
- Km [5, 9]: 348 ± 43 µM
- Km [6, 9]: 161 ± 73 µM
